Reference: patent US9957230B2, “Synergistic compositions” (Cadila Healthcare Limited, priority 2013, dated 2018)
Several values for one entry are separate records, joined by “and”; a condition that tells them apart may be missing. Equal values may be shown once. Where a name gives a salt, the structure may show the parent alone.

Columns and labels:
Assay type in all cases: in vivo
db/db mice [1] = test: Antidiabetic activity with Exenatide or Glimepiride in db/db mice (studies VII and VIII): non-fasting serum glucose; conditions: for Serum Glucose (mg/dl) Day 0: Day 0 (pretreatment), male and female db/db mice; for Serum Glucose (mg/dl) Day 6: Day 6, one hour after dose, non-fasting; for % Change Day 6 vs Day 0: serum glucose
Text: The in-vivo efficacy for antidiabetic activity was done in male and female db/db mice of 12-16 weeks of age. Generally obese and diabetic animals are insulin resistant and have abnormalities in glucose and lipid metabolism. The development of diabetes and beta cell dysfunction in these animal models closely parallels the pathophysiology of the disease condition in humans. […] They progressively develop into insulinopenia with age, a feature commonly observed in last stage of type-2 diabetes, when blood sugar levels are insufficiently controlled. Therefore, this genetic model proves to be suitable for predicting the likely therapeutic benefit of novel euglycemic agents in human type-2 diabetes.
(§1) In this experiment, 49 db/db mice of 12-16 week were divided into 7 groups and as per their day 0 serum glucose levels. […] Detail treatments and routes of administrations were mentioned in Table no. 27. The treatment was given once daily for 7 days.
(§2) The blood was collected by retro-orbital sinus puncture method under light ether anesthesia on day 0 (pretreatment) and on day 6 (one hour after dose administration) for non-fasting glucose analysis and oral glucose tolerance test (OGTT) was performed on day 7 of the treatment in fasting condition. After blood collection serum was separated and analyzed glucose analysis using Spectra max and commercial diagnostic kits. The OGTT procedure followed is as given below—
(§3) The calculation for antidiabetic activity i.e. effect on serum glucose and improvement in glucose Area Under Curve (AUC) was calculated using the excel sheet and Graph Pad Prism software. The day-0 and day-6 glucose values of vehicle control and treatment were considered for calculating the effect on serum glucose. The effect on glucose AUC was calculated using the OGTT glucose levels at different time points and the improvement in glucose AUC were the reduction in glucose AUC after the treatment during OGTT.

db/db mice [2] = test: Oral glucose tolerance test in db/db mice (studies VII and VIII); conditions: for AUC Glucose: OGTT day 7, fasting, glucose load 2 gm/kg
Text: as §1, §2
Oral Glucose Tolerance Test (OGTT): One day before OGTT all animals were kept on overnight fasting and on the day of OGTT, day 7 of the treatment each animal was dosed with a single dose of vehicle/test compounds administered orally and 60-min post dosing blood was collected (0 min) and glucose load (2 gm/kg/10 ml) administered per orally. Blood was then collected at time points corresponding to 30, 60 and 120 min after glucose load administration. Serum was separated and analyzed for glucose using Spectra max and commercial diagnostic kits.
as §3

[3] = tested on: high fat high cholesterol fed Syrian golden hamster; test: Lipid lowering effects with Atorvastatin in HF-HC fructose diet Syrian golden hamsters (study V)
Text: The in-vivo efficacy was done in high fat high cholesterol fed Syrian golden hamster. It is an excellent model to investigate hepatic assembly and secretion of lipoprotein since its lipoprotein metabolism closely resembles that of humans as they have cholesteryl ester transfer protein (CETP) as like human. Feeding high fat high cholesterol diet to Syrian golden hamster causes hypercholesterolemia and hypertriglyceridemia which causes an increase in LDL levels and decrease in HDL-C/TC ratio.
In this experiment, 18 Syrian golden hamsters which were kept on high fat-high cholesterol (HF-HC) fructose diet were divided into 3 treatment groups and one group was on normal diet control which was NIN (National Institute of Nutrition, NIN diet) control, the treatment given was as per Table no. 1. […] 20. The treatment was given oral gavages once daily for 13 days.
Calculations of the % change in LDL-C levels, triglyceride and LDL-C/HDL-C ratio (Vs HF-HC fructose diet control) were performed using MS Excel.

db/db mice [4] = test: Oral glucose tolerance test in db/db mice (study IV); conditions: Compound Ia 0.1 mg/kg, Vildagliptin 1 mg/kg, Metformin 100 mg/kg; for % improvement in AUC glucose vs control: Table 19 and text, OGTT after 14 days of treatment
Text: 1. […] 17. The treatment was given oral gavages once daily for 14 days.
(§4) The OGTT procedure followed is as given below—

db/db mice [5] = test: Antidiabetic activity in db/db mice (studies I and II): non-fasting serum glucose; conditions: Compound (Ia) 0.1 mg/kg; for Serum Glucose (mg/dl) Day 0: Day 0 (pretreatment); for Serum Glucose (mg/dl) Day 12: Day 12, non-fasting; for % Change Vs control: serum glucose day 12 vs vehicle control; for % Change Day 12 vs Day 0: serum glucose
Text: The in-vivo efficacy for antidiabetic activity was done for (I) and (II) individually with db/db mice of 13-14 weeks of age.
8. […] 8. The treatment was given oral gavages once daily for 14 days. […]

db/db mice [6] = test: Oral glucose tolerance test in db/db mice (studies I and II); conditions: Compound (Ia) 0.1 mg/kg; for AUC Glucose: OGTT day 14, fasting, glucose load 2 gm/kg; for % improvement in AUC glucose vs control: OGTT after 14 days of treatment
Text: 8. […] 8. The treatment was given oral gavages once daily for 14 days.
as §4

[7] = Table 28, Compound Ia 0.1 mg/kg p.o., Exenatide 0.1 μg/kg i.p. once daily
[8] = Table 30, Compound Ia 0.1 mg/kg, Glimepiride 2 mg/kg p.o. once daily
[9] = HF-HC fructose diet hamsters, 13 days, Compound (Ia) 3 mg/kg, Atorvastatin 0.5 mg/kg
[10] = Table 23, LDL/HDL ratio, Day 13, Compound Ia 3 mg/kg, Atorvastatin 0.5 mg/kg
[11] = Table 9, female db/db mice, Sitagliptin 3 mg/kg p.o. once daily
[12] = Table 9, Sitagliptin 3 mg/kg p.o. once daily
[13] = Table 11, female db/db mice, Metformin 150 mg/kg p.o. once daily
[14] = Table 11, Metformin 150 mg/kg p.o. once daily
[15] = Table 12, Metformin 150 mg/kg p.o.

`CCO[C@@H](Cc1ccc(OCCn2c(C)ccc2-c2ccc(SC)cc2)cc1)C(=O)O` [Compound (Ia), Benzenepropanoic acid, α-ethoxy-4-[2-[2-methyl-5-[4-(methylthio)phenyl]-1H -pyrrol-1-yl]ethoxy]-, magnesium salt] was tested, and the “Serum Glucose (mg/dl) Day 0” value (db/db mice [1]; [7]) was 420.6 mg/dL, the “Serum Glucose (mg/dl) Day 6” value (db/db mice [1]; [7]) was 363.4 mg/dL and the “% Change Vs control” value (db/db mice [1]; Table 28, serum glucose day 6 vs vehicle control (i.p. PBS or per oral vehicle), Compound Ia 0.1 mg/kg p.o., Exenatide 0.1 μg/kg i.p.) was −24.8%. For the same compound, the “% Change Day 6 vs Day 0” value (db/db mice [1]; Table 28, Compound Ia 0.1 mg/kg p.o., Exenatide 0.1 μg/kg i.p.) was −13.4%, the “Serum Glucose (mg/dl) Day 0” value (db/db mice [1]; [8]) was 420.6 mg/dL and the “Serum Glucose (mg/dl) Day 6” value (db/db mice [1]; [8]) was 363.4 mg/dL. The “% Change Day 6 vs Day 0” value (db/db mice [1]; Table 30, Compound Ia 0.1 mg/kg, Glimepiride 2 mg/kg p.o.) was −13.4%, the “% Change Vs control” value (db/db mice [1]; Table 30 and text, serum glucose day 6 vs vehicle control, Compound Ia 0.1 mg/kg, Glimepiride 2 mg/kg p.o.) was −24.8% and the “reduction in serum glucose” value (db/db mice [1]; db/db mice, day 6, Compound Ia 0.1 mg/kg p.o., Exenatide 0.1 μg/kg i.p.) was 24.8%. For the same compound, the “AUC Glucose” value (db/db mice [2]; Table 29, Compound Ia 0.1 mg/kg p.o., Exenatide 0.1 μg/kg i.p.) was 46452.6 mg·min/dL, the “% improvement in AUC glucose vs control” value (db/db mice [2]; Table 29 and text, OGTT day 7, Compound Ia 0.1 mg/kg p.o., Exenatide 0.1 μg/kg i.p.) was 23.7% and the “AUC Glucose” value (db/db mice [2]; Table 31, Compound Ia 0.1 mg/kg, Glimepiride 2 mg/kg p.o.) was 46452.6 mg·min/dL. The “% improvement in AUC glucose vs control” value (db/db mice [2]; Table 31 and text, OGTT after 7 days of treatment, Compound Ia 0.1 mg/kg, Glimepiride 2 mg/kg p.o.) was 23.7%, the “reduction in LDL-C” value [3, 9] was 14.8% and the “reduction in LDL-C/HDL-C ratio, atherogenic index” value [3, 9] was “does not showed any reduction”. The reduction in triglyceride [3, 9] was 65.2%, the “Serum LDL-C (mg/dl) Day 0” value ([3]; Table 21, Day 0 (pretreatment), HF-HC fructose diet hamsters, Compound Ia 3 mg/kg, Atorvastatin 0.5 mg/kg oral once daily 13 days) was 75.1 mg/dL and the “LDL-C % Change vs Day 0” value ([3]; Table 21, Day 13, Compound Ia 3 mg/kg, Atorvastatin 0.5 mg/kg) was 0.1%. For the same compound, the “Serum LDL-C (mg/dl) Day 13” value ([3]; Table 21, Day 13, HF-HC fructose diet hamsters, Compound Ia 3 mg/kg, Atorvastatin 0.5 mg/kg oral once daily 13 days) was 73.1 mg/dL, the “% Change vs HF-HC Fructose Control” value ([3]; Table 21, LDL-C, Day 13, Compound Ia 3 mg/kg, Atorvastatin 0.5 mg/kg) was −14.8% and the “Serum triglyceride (mg/dl) Day 0” value ([3]; Table 22, Day 0 (pretreatment), HF-HC fructose diet hamsters, Compound Ia 3 mg/kg, Atorvastatin 0.5 mg/kg oral once daily 13 days) was 418.4 mg/dL. The “TG % Change vs Day 0” value ([3]; Table 22, Day 13, Compound Ia 3 mg/kg, Atorvastatin 0.5 mg/kg) was −64.0%, the “Serum triglyceride (mg/dl) Day 13” value ([3]; Table 22, Day 13, HF-HC fructose diet hamsters, Compound Ia 3 mg/kg, Atorvastatin 0.5 mg/kg oral once daily 13 days) was 149.5 mg/dL and the “% Change vs HF-HC Fructose Control” value ([3]; Table 22, triglyceride, Day 13, Compound Ia 3 mg/kg, Atorvastatin 0.5 mg/kg) was −65.2%. For the same compound, the “LDL/HDL RATIO Day 0” value ([3]; Table 23, Day 0 (pretreatment), HF-HC fructose diet hamsters, Compound Ia 3 mg/kg, Atorvastatin 0.5 mg/kg) was 0.79, the “LDL/HDL RATIO Day 13” value ([3]; Table 23, Day 13, HF-HC fructose diet hamsters, Compound Ia 3 mg/kg, Atorvastatin 0.5 mg/kg) was 0.82 and the “% Change vs HF-HC Fructose Control” value [3, 10] was 8.5%. For the same compound, the “Change vs Day 0” value [3, 10] was 6.4, the “AUC Glucose” value (db/db mice [4]; Table 19, OGTT day 14, fasting, glucose load 2 gm/kg) was 69613.3 mg·min/dL and the “% improvement in AUC glucose vs control” value (db/db mice [4]) was “does no show any improvement”. The “% improvement in AUC glucose vs control” value (db/db mice [4]; listed as Compound Ia) was −12.0%, the “Serum Glucose (mg/dl) Day 0” value (db/db mice [5]; [11]) was 407.8 ± 28.9 mg/dL and the “Serum Glucose (mg/dl) Day 12” value (db/db mice [5]; [11]) was 276.9 ± 39.4 mg/dL. For the same compound, the “% Change Vs control” value (db/db mice [5]; [12]) was −32.8 ± 6.0%, the “% Change Day 12 vs Day 0” value (db/db mice [5]; [12]) was −33.0 ± 5.9% and the “Serum Glucose (mg/dl) Day 0” value (db/db mice [5]; [13]) was 407.8 mg/dL. For the same compound, the “Serum Glucose (mg/dl) Day 12” value (db/db mice [5]; [13]) was 276.9 mg/dL, the “% Change Vs control” value (db/db mice [5]; [14]) was −32.8% and the “% Change Day 12 vs Day 0” value (db/db mice [5]; [14]) was −33.0%. For the same compound, the “reduction in serum glucose” value (db/db mice [5]; female db/db mice, Sitagliptin 3 mg/kg, Metformin 150 mg/kg) was 32.8%, the “AUC Glucose” value (db/db mice [6]; Table 10, Sitagliptin 3 mg/kg p.o.) was 51757.3 ± 3366.3 mg·min/dL and the “% improvement in AUC glucose vs control” value (db/db mice [6]; Table 10 and text, Sitagliptin 3 mg/kg p.o.) was 9% and 9.0 ± 5.9%. The “% improvement in AUC glucose vs control” value (db/db mice [6]; [15]) was 9% and the “AUC Glucose” value (db/db mice [6]; [15]) was 51757.3 mg·min/dL.
